Data: patent publication US8791132B2, “Compounds and methods for treatment of hypertension” (Medivation Technologies, Inc., priority 2011, dated 2014)
Read-outs that look alike come from different tables or passages of the source. One block for each compound: values may come before it.

Assays:
[1] = target: T1, human recombinant adrenergic α2A receptor (Homo sapiens, UniProt P08913); assay: Radioligand binding, adrenergic α2A ([3H]MK-912); conditions: for Percentage inhibition of ligand binding, Adrenergic α2A / Percentage inhibition of ligand binding, Adrenergic α2A (0.1 μM): 0.1 µM
T1 construct: expressed in transfected cells; host or cells: insect Sf9 cells
T1 sequence (P08913 1-465): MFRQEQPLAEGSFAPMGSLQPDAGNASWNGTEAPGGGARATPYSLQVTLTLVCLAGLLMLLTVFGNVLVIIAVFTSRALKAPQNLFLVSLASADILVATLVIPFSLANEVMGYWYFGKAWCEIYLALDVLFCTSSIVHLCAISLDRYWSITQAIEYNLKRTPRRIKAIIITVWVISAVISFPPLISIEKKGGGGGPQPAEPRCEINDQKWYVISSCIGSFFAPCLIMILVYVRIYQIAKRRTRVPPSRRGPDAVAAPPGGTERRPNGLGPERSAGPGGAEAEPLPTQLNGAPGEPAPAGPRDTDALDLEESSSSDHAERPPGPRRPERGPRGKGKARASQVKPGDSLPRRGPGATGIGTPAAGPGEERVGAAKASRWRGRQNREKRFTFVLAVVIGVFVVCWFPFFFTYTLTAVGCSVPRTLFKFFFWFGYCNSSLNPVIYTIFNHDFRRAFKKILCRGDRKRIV
How it was run: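 Sf9-expressed receptor was incubated with compound for 60 min at 25 °C in modified Tris-HCl buffer, pH 7.4. Nonspecific binding was taken as that remaining with 10 μM WB-4101.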

[2] = target: T2, rat adrenergic α1B receptor (Rattus norvegicus, UniProt P15823); assay: Radioligand binding, adrenergic α1B ([3H]Prazosin); conditions: for Percentage inhibition of ligand binding, Adrenergic α1B / Percentage inhibition of ligand binding, Adrenergic α1B (0.1 μM): 0.1 µM
T2 construct: rat adrenergic α1B receptor obtained from Wistar Rat liver; from tissue; host or cells: Wistar rat liver
T2 sequence (P15823 1-515): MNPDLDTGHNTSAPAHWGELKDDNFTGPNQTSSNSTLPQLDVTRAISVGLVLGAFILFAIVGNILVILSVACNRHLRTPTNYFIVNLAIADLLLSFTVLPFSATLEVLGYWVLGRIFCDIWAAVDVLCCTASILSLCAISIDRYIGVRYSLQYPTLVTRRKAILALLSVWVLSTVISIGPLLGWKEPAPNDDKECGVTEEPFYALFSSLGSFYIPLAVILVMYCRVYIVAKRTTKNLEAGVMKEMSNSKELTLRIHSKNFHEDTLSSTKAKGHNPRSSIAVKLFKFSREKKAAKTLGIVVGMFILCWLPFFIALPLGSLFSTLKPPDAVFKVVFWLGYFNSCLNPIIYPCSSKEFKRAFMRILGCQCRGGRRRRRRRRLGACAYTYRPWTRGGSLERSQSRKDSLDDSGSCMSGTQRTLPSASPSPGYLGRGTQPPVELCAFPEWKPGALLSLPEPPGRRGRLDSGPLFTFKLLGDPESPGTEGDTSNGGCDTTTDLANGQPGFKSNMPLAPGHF
How it was run: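 Filter binding with Wistar rat liver α1B preparation: test compound plus 0.25 nM [3H]prazosin, 1 h at 25° C in modified Tris-HCl buffer pH 7.4.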

[3] = target: T3, human recombinant adrenergic α2B receptor (Homo sapiens, UniProt P18089); assay: Radioligand binding, adrenergic α2B ([3H]Rauwolscine); conditions: for Percentage inhibition of ligand binding, Adrenergic α2B / Percentage inhibition of ligand binding, Adrenergic α2B (0.03 μM): 0.03 µM
T3 construct: expressed in transfected cells; host or cells: CHO-K1
T3 sequence (P18089 1-450): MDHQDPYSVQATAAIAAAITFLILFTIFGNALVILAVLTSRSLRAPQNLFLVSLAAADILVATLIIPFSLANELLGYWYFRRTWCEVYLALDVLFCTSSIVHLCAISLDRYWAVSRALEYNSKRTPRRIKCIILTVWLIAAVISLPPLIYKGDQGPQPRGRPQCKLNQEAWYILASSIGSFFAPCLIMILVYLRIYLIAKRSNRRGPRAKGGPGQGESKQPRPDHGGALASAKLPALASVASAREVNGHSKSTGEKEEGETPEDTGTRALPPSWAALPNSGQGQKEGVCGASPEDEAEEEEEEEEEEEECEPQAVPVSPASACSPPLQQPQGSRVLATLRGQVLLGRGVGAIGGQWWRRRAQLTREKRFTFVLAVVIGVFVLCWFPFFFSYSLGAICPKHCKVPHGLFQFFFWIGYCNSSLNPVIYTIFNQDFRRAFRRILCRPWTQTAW
How it was run: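 Values are percent inhibition of specific radioligand binding. The receptor, expressed in CHO-K1 cells, was exposed to 2.5 nM [3H]Rauwolscine at 25° C for 60 min, with 10 μM Prazosin marking non-specific binding.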

[4] = read-out: Percentage inhibition of ligand binding, Adrenergic α2A (0.1 μM), compound at 0.1 μM, [3H]MK-912, repeat datapoints each shown
[5] = read-out: Percentage inhibition of ligand binding, Adrenergic α1B (0.1 μM), compound at 0.1 μM, [3H]Prazosin, repeat datapoints each shown
[6] = read-out: Percentage inhibition of ligand binding, Adrenergic α2B (0.03 μM), compound at 0.03 μM, [3H]Rauwolscine, repeat datapoints each shown
[7] = 0.1 μM compound, read-out: Percentage inhibition of ligand binding, Adrenergic α2A
[8] = 0.1 μM compound, read-out: Percentage inhibition of ligand binding, Adrenergic α1B
[9] = 0.03 μM compound, read-out: Percentage inhibition of ligand binding, Adrenergic α2B
[10] = compound at 0.1 μM, [3H]MK-912, repeat assays, each datapoint shown
[11] = compound at 0.1 μM, [3H]Prazosin, repeat assays, each datapoint shown
[12] = compound at 0.03 μM, [3H]Rauwolscine, repeat assays, each datapoint shown
[13] = compound at 0.1 μM, [3H]MK-912, repeat datapoints each shown
[14] = compound at 0.1 μM, [3H]Prazosin, repeat datapoints each shown
[15] = compound at 0.03 μM, [3H]Rauwolscine, repeat datapoints each shown
[16] = compound at 0.1 μM, [3H]Prazosin, repeat assays, each datapoint shown, read-out: Percentage inhibition of ligand binding, Adrenergic α1B
[17] = compound at 0.03 μM, [3H]Rauwolscine, repeat assays, each datapoint shown, read-out: Percentage inhibition of ligand binding, Adrenergic α2B

SMILES: C/C(=C\n1c2c(c3cc(C)ccc31)C1CCCN1CC2)c1ccc(F)cc1 (single isomer, unassigned) [194b, 7-(2-(4-fluorophenyl)prop-1-enyl)-10-methyl-2,3,5,6,7,11c-hexahydro-1H-indolizino[7,8-b]indole]
inhibition at 0.1 µM [1, 4]: 94% | inhibition at 0.1 µM [2, 5]: 100% | inhibition at 0.03 µM [3, 6]: 103%

SMILES: CC1c2c(c3cc(Cl)ccc3n2CC(O)c2ccncc2)CCN1C (stereo not drawn) [II-72]
inhibition at 0.1 µM [1, 7]: 25% | inhibition at 0.1 µM [2, 8]: 30% | inhibition at 0.03 µM [3, 9]: 47%

SMILES: CN1CCc2c(c3ccc(Cl)cc3n2CC(O)c2ccncc2)C1 (single isomer, unassigned) [53b, 2-(7-chloro-2-methyl-3,4-dihydro-1H-pyrido[4,3-b]indol-5(2H)-yl)-1-(pyridin-4-yl)ethanol]
Percentage inhibition of ligand binding, Adrenergic α2A [1, 10]: 12% | Percentage inhibition of ligand binding, Adrenergic α1B [2, 11]: 14% | Percentage inhibition of ligand binding, Adrenergic α2B [3, 12]: 85%

SMILES: Cc1ccc2c(c1)c1c(n2CC(O)c2ccc(C(N)=O)cc2)CCN(C)C1 (single isomer, unassigned) [139b, 4-[2-(2,8-dimethyl-1,2,3,4-tetrahydro-pyrido[4,3-b]indol-5-yl)-1-hydroxy-ethyl]-benzamide]
Percentage inhibition of ligand binding, Adrenergic α2A (0.1 μM) [1, 13]: 6% | Percentage inhibition of ligand binding, Adrenergic α1B (0.1 μM) [2, 14]: 11% | Percentage inhibition of ligand binding, Adrenergic α2B (0.03 μM) [3, 15]: 59%

SMILES: Cc1ccc2c(c1)c1c(n2CC(NC(C)C)c2ccncc2)CCN(C)C1 (stereo not drawn) [II-10, [2-(2,8-dimethyl-1,2,3,4-tetrahydro-pyrido[4,3-b]indol-5-yl)-1-pyridin-4-yl-ethyl]-isopropyl-amine]
inhibition at 0.1 µM [1, 7]: 10% | inhibition at 0.1 µM [2, 8]: 7% | inhibition at 0.03 µM [3, 9]: 47%

SMILES: OC(Cn1c2c(c3cccnc31)CN1CCCC1C2)c1ccncc1 (single isomer, unassigned) [37d]
Percentage inhibition of ligand binding, Adrenergic α2A [1, 10]: 8% | Percentage inhibition of ligand binding, Adrenergic α1B [2, 11]: 2% | Percentage inhibition of ligand binding, Adrenergic α2B [3, 12]: −3%

SMILES: Cc1ccc2c(c1)c1c(n2CC(O)c2ccncc2)CC2CCCN2C1 (single isomer, unassigned) [76a]
Percentage inhibition of ligand binding, Adrenergic α2A [1, 10]: 21% | Percentage inhibition of ligand binding, Adrenergic α1B [2, 11]: 78% | Percentage inhibition of ligand binding, Adrenergic α2B [3, 12]: 92%

SMILES: Cc1ccc2c(c1)c1c(n2CC(C)(N)c2cccnc2)CCN(C)C1 (single isomer, unassigned) [149a, 1-(2,8-dimethyl-3,4-dihydro-1H-pyrido[4,3-b]indol-5(2H)-yl)-2-(pyridin-3-yl)propan-2-amine]
Percentage inhibition of ligand binding, Adrenergic α2A (0.1 μM) [1, 13]: −4% | inhibition at 0.1 µM [2, 5]: 12% | inhibition at 0.03 µM [3, 6]: 16%

SMILES: CN1CCc2c(c3cc(Cl)ccc3n2CC(O)c2cccnc2)C1 (single isomer, unassigned) [7b]
Percentage inhibition of ligand binding, Adrenergic α2A [1, 10]: 25% | Percentage inhibition of ligand binding, Adrenergic α1B [2, 11]: 37% | Percentage inhibition of ligand binding, Adrenergic α2B [3, 12]: 74%

SMILES: Cc1cnc2c(c1)c1c(n2CC(O)c2ccncc2)CCNC1 (single isomer, unassigned) [58b, 2-(3-methyl-5,6,7,8-tetrahydro-1,6,9-triaza-fluoren-9-yl)-1-pyridin-4-yl-ethanol]
Percentage inhibition of ligand binding, Adrenergic α2A [1, 10]: 0% | Percentage inhibition of ligand binding, Adrenergic α1B [2, 11]: 24% | Percentage inhibition of ligand binding, Adrenergic α2B [3, 12]: 39%

SMILES: CC(=O)c1ccc2c(c1)c1c(n2CC(O)c2ccncc2)CCN(C)C1 (single isomer, unassigned) [49a, 1-(2,3,4,5-tetrahydro-5-(2-hydroxy-2-(pyridin-4-yl)ethyl)-2-methyl-1H-pyrido[4,3-b]indol-8-yl)ethanone]
Percentage inhibition of ligand binding, Adrenergic α2A [1, 10]: 1% | inhibition at 0.1 µM [2, 16]: 4% | inhibition at 0.03 µM [3, 17]: 18%

Next, values leading:

inhibition at 0.1 µM [1, 4]: 8% | inhibition at 0.1 µM [2, 5]: 9% | inhibition at 0.03 µM [3, 6]: 88%
SMILES: COC(=O)CC(Cn1c2c(c3cc(C)ccc31)CN(C)CC2)c1ccncc1 (stereo not drawn) [II-223, 4-(2,8-dimethyl-1,2,3,4-tetrahydro-pyrido[4,3-b]indol-5-yl)-3-pyridin-4-yl-butyric acid methyl ester]

inhibition at 0.1 µM [1, 7]: 4% | inhibition at 0.1 µM [2, 8]: -4% | inhibition at 0.03 µM [3, 9]: 24%
SMILES: Cc1ccc2c(c1)c1c(n2CC(O)c2ccncc2)CCN(CCS(=O)(=O)O)C1 (stereo not drawn) [II-97, 2-(3,4-dihydro-5-(2-hydroxy-2-(pyridin-4-yl)ethyl)-8-methyl-1H-pyrido[4,3-b]indol-2(5H)-yl)ethanesulfonic acid]

inhibition at 0.1 µM [1, 4]: 9% | inhibition at 0.1 µM [2, 5]: 11% | inhibition at 0.03 µM [3, 6]: -2%
SMILES: Cc1ccc2c(c1)c1c(n2CC(CCN)c2ccncc2)CCN(C)C1 (stereo not drawn) [II-231, 4-(2,8-dimethyl-1,2,3,4-tetrahydro-pyrido[4,3-b]indol-5-yl)-3-pyridin-4-yl-butylamine]

inhibition at 0.1 µM [1, 4]: 1% | inhibition at 0.1 µM [2, 5]: 21% | inhibition at 0.03 µM [3, 6]: 6%
SMILES: Cc1cnc2c(c1)c1c(n2CC(N)c2ccncc2)CCN(C)C1 (stereo not drawn) [compound 156]

Percentage inhibition of ligand binding, Adrenergic α2A (0.1 μM) [1, 13]: 79% | inhibition at 0.1 µM [2, 5]: 83% | inhibition at 0.03 µM [3, 6]: 105%
SMILES: Cc1ccc2c(c1)c1c(n2CC(C)(O)c2cccnc2)CCN2CCCC12 (single isomer, unassigned) [II-127a, 1-(9-methyl-1,2,3,4,5,10c-hexahydro-3a,6-diaza-cyclopenta[c]fluoren-6-yl)-2-pyridin-3-yl-propan-2-ol]

inhibition at 0.1 µM [1, 7]: 15% | inhibition at 0.1 µM [2, 8]: 8% | inhibition at 0.03 µM [3, 9]: 35%
SMILES: Cc1ccc2c(c1)c1c(n2CC(O)c2ccncc2)CCN(CCCO)C1 (stereo not drawn) [II-75, 3-(3,4-dihydro-5-(2-hydroxy-2-(pyridin-4-yl)ethyl)-8-methyl-1H-pyrido[4,3-b]indol-2(5H)-yl)propan-1-ol]

Percentage inhibition of ligand binding, Adrenergic α2A (0.1 μM) [1, 13]: −10% | Percentage inhibition of ligand binding, Adrenergic α1B (0.1 μM) [2, 14]: 5% | Percentage inhibition of ligand binding, Adrenergic α2B (0.03 μM) [3, 15]: 2%
SMILES: CN1CCc2c(c3cc(Cl)cnc3n2CC(C)(O)c2ccc(C(F)(F)F)nc2)C1 (single isomer, unassigned) [II-109b]

inhibition at 0.1 µM ([1]; compound at 0.1 μM, [3H]MK-912, repeat assays, each datapoint shown, read-out: Percentage inhibition of ligand binding, Adrenergic α2A): -3% | inhibition at 0.1 µM [2, 16]: -13% | inhibition at 0.03 µM [3, 17]: 64%
SMILES: CN1CCc2c(c3ccc(C(F)(F)F)cc3n2CC(O)c2ccncc2)C1 (stereo not drawn) [compound 65, 2-(2-methyl-7-(trifluoromethyl)-3,4-dihydro-1H-pyrido[4,3-b]indol-5(2H)-yl)-1-(pyridin-4-yl)ethanol]
